Results from ChEMBL document CHEMBL4680246, “Design, synthesis and biological evaluation of novel O-carbamoyl ferulamide derivatives as multi-target-directed ligands for the treatment of Alzheimer's disease” (Eur J Med Chem, 2020).
pIC50: −log10 of the molar value. Activity calls are given as the source filed them. No cut-off for these calls is given here.

Tests used:
HT-22 = assay: Down regulation of tau protein expression in mouse HT22 cells transfected with pRK5-GFP-Tau plasmid at 2.5 to 20 uM by Western blot analysis; assay type: functional, cell-based; details: dose 2.5-20 µM
[1] = Effect on tau protein level in mouse HT22 cells transfected with pRK5-GFP-Tau plasmid assessed as fluorescence intensity at 20 uM by fluorescence microscopy (Rvb <= 40.9); assay type: functional, HT-22
[2] = Effect on tau protein level in mouse HT22 cells transfected with pRK5-GFP-Tau plasmid assessed as fluorescence intensity at 5 uM by fluorescence microscopy (Rvb <= 40.9); assay type: functional, HT-22
[3] = Cytotoxicity against mouse HT22 cells assessed as cell viability at 20 uM by MTT assay relative to control; assay type: cell-based, HT-22; details: read-out: Activity
SH-SY5Y = assay: Neuroprotective activity against amyloid beta (1 to 42)-induced cytotoxicity in human SH-SY5Y cells assessed as cell viability at 10 uM by MTT assay (reference value: 50.3%); assay type: functional; details: read-out: Activity
[4] = target: Amyloid-beta precursor protein (Homo sapiens) (UniProt P05067); assay: Disaggregation of self-induced amyloid beta (1 to 42) (unknown origin) preformed fibrils at 25 uM measured after 24 hrs by thioflavin-T fluorescence assay relative to control
Cholinesterase = Cholinesterase (Homo sapiens, UniProt P06276); assay: Inhibition of human serum BuChE assessed as residual activity at 0.1 times IC50 using acetylcholine iodide as substrate measured after dilution by Ellman's method relative to control
Acetylcholinesterase [5] = target: Acetylcholinesterase (Homo sapiens, UniProt P22303); assay: Inhibition of human erythrocytes AChE using acetylcholine iodide as substrate incubated for 15 mins by Ellman's method
[6] = Selectivity index, ratio of IC50 for Electrophorus electricus AChE to IC50 for equine serum BuChE
Acetylcholinesterase [7] = target: Acetylcholinesterase (Electrophorus electricus, UniProt O42275); assay: Inhibition of Electrophorus electricus AChE using acetylcholine iodide as substrate incubated for 15 mins by Ellman's method
[8] = Effect on tau protein level in mouse HT22 cells transfected with pRK5-GFP-Tau P301L plasmid assessed as fluorescence intensity at 2.5 uM by fluorescence microscopy (reference value: 33.6); assay type: functional, HT-22
[9] = Effect on tau protein level in mouse HT22 cells transfected with pRK5-GFP-Tau P301L plasmid assessed as fluorescence intensity at 20 uM by fluorescence microscopy (reference value: 33.6); assay type: functional, HT-22
[10] = Effect on APP protein level in mouse HT22 cells transfected with pEGFP-N1-APP plasmid assessed as fluorescence intensity at 10 uM by fluorescence microscopy (reference value: 33.2); assay type: functional, HT-22
[11] = Permeability of compound by PAMPA-BBB assay; assay type: ADME; details: read-out: permeability
L02 = assay: Cytotoxicity against human LO2 cells assessed as reduction in cell viability at 25 uM by MTT assay; assay type: cell-based; details: l02, 25 µM
[12] = Toxicity in Zebrafish assessed as mortality at 6.25 ug/ml relative to control; parameters: species or system Danio rerio; details: in vivo, at 6.25 µg/mL
[13] = Toxicity in Zebrafish assessed as mortality at 12.5 ug/ml relative to control; parameters: species or system Danio rerio; details: in vivo, at 12.5 µg/mL
[14] = Toxicity in Zebrafish assessed as mortality at 50 ug/ml relative to control; parameters: species or system Danio rerio; details: in vivo, at 50 µg/mL
[15] = Toxicity in Zebrafish assessed as pericardial edema at 6.25 ug/ml relative to control; parameters: species or system Danio rerio; details: in vivo, at 6.25 µg/mL
[16] = Toxicity in Zebrafish assessed as effect on kidney at 6.25 ug/ml relative to control; parameters: species or system Danio rerio; details: in vivo, at 6.25 µg/mL
[17] = Toxicity in Zebrafish assessed as induction of kidney edema at 6.25 ug/ml relative to control; parameters: species or system Danio rerio; details: in vivo, at 6.25 µg/mL
[18] = Toxicity in Zebrafish assessed as change in body shape at 6.25 ug/ml relative to control; parameters: species or system Danio rerio; details: in vivo, at 6.25 µg/mL
[19] = Toxicity in Zebrafish assessed as death at 6.25 ug/ml relative to control; parameters: species or system Danio rerio; details: in vivo, at 6.25 µg/mL, read-out: Activity
[20] = Toxicity in AlCl3-induced Zebrafish model of Alzheimer's disease assessed as mortality at 1 ug/ml relative to control; parameters: species or system Danio rerio; details: in vivo, at 1 µg/mL
[21] = Toxicity in AlCl3-induced Zebrafish model of Alzheimer's disease assessed as mortality at 10 ug/ml relative to control; parameters: species or system Danio rerio; details: in vivo, at 10 µg/mL
[22] = Toxicity in AlCl3-induced Zebrafish model of Alzheimer's disease assessed as mortality at 50 ug/ml relative to control; parameters: species or system Danio rerio; details: in vivo, at 50 µg/mL
[23] = Toxicity in AlCl3-induced Zebrafish model of Alzheimer's disease assessed as mortality at 100 ug/ml relative to control; parameters: species or system Danio rerio; details: in vivo, at 100 µg/mL
[24] = Toxicity in AlCl3-induced Zebrafish model of Alzheimer's disease assessed as mortality at 200 ug/ml relative to control; parameters: species or system Danio rerio; details: in vivo, at 200 µg/mL
[25] = Toxicity in AlCl3-induced Zebrafish model of Alzheimer's disease; parameters: species or system Danio rerio; details: in vivo
Danio rerio [26] = organism: Danio rerio; assay: Antialzheimer activity in AlCl3-induced Zebrafish model of Alzheimer's disease assessed as motility distance at […] (reference value: 5346 mm); assay type: functional; details: dose 0.11 µg/ml
Danio rerio [27] = organism: Danio rerio; assay: Antialzheimer activity in AlCl3-induced Zebrafish model of Alzheimer's disease assessed as motility distance at 1 ug/ml (reference value: 5346 mm); assay type: functional; details: dose 1 µg/ml
Danio rerio [28] = organism: Danio rerio; assay: Antialzheimer activity in AlCl3-induced Zebrafish model of Alzheimer's disease assessed as change in motility speed at […] (reference value: 1.08 mm/s); assay type: functional; details: dose 0.11 µg/ml
Danio rerio [29] = organism: Danio rerio; assay: Antialzheimer activity in AlCl3-induced Zebrafish model of Alzheimer's disease assessed as change in motility speed at 1 ug/ml (reference value: 1.08 mm/s); assay type: functional; details: dose 1 µg/ml
Danio rerio [30] = organism: Danio rerio; assay: Antialzheimer activity in AlCl3-induced Zebrafish model of Alzheimer's disease assessed as increase in motility speed at […] relative to control; assay type: functional; details: dose 0.11 µg/ml
Danio rerio [31] = organism: Danio rerio; assay: Antialzheimer activity in AlCl3-induced Zebrafish model of Alzheimer's disease assessed as increase in motility speed at 1 ug/ml relative to control; assay type: functional; details: dose 1 µg/ml
Danio rerio [32] = organism: Danio rerio; assay: Protection against amyloid beta (1 to 42)-induced zebrafish model of vascular injury assessed as vascular injury rate at 0.33 ug/ml (reference value: 73.3%); assay type: functional; details: dose 0.33 µg/ml
[33] = Acute toxicity in Kunming mouse assessed as decrease in autonomic activity at 250 to 1000 mg/kg; assay type: organism-based; details: in vivo, dose 250-1000 mg/kg
[34] = Acute toxicity in Kunming mouse assessed as piloerection at 250 to 1000 mg/kg measured after 4 hrs; assay type: organism-based; details: in vivo, dose 250-1000 mg/kg
Mus musculus [35] = assay: Improvement in cognitive impairment in scopolamine-induced mouse model of amnesia assessed as increase in spontaneous alteration at 5 to 10 mg/kg by Y-maze test; assay type: functional, organism-based; details: dose 5-10 mg/kg
Mus musculus [36] = assay: Improvement in brain cholinergic activity in scopolamine-induced mouse model of amnesia assessed as reduction in AChE vitality at 5 to 10 mg/kg; assay type: functional, organism-based; details: dose 5-10 mg/kg

Sequence of Amyloid-beta precursor protein (Homo sapiens) (P05067 whole entry): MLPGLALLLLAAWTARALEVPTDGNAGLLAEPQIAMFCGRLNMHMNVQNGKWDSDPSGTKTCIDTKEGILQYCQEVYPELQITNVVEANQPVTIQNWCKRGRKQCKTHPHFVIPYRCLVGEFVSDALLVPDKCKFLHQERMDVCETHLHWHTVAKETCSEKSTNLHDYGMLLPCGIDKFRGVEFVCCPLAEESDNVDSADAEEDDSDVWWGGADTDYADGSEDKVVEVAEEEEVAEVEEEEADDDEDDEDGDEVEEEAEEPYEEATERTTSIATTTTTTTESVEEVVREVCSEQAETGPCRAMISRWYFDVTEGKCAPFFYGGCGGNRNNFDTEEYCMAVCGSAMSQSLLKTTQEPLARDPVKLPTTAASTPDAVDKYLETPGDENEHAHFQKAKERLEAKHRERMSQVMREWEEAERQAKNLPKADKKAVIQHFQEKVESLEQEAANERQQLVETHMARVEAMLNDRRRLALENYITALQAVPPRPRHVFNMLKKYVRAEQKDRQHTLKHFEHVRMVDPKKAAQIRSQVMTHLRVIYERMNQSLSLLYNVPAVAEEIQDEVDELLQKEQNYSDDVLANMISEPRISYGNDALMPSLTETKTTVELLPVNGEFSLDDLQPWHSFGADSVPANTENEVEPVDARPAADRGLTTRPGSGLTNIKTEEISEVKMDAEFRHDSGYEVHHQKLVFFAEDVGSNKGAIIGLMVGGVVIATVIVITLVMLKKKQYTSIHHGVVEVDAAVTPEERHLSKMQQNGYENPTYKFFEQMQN
Sequence of Acetylcholinesterase (Electrophorus electricus, UniProt O42275) (O42275 whole entry): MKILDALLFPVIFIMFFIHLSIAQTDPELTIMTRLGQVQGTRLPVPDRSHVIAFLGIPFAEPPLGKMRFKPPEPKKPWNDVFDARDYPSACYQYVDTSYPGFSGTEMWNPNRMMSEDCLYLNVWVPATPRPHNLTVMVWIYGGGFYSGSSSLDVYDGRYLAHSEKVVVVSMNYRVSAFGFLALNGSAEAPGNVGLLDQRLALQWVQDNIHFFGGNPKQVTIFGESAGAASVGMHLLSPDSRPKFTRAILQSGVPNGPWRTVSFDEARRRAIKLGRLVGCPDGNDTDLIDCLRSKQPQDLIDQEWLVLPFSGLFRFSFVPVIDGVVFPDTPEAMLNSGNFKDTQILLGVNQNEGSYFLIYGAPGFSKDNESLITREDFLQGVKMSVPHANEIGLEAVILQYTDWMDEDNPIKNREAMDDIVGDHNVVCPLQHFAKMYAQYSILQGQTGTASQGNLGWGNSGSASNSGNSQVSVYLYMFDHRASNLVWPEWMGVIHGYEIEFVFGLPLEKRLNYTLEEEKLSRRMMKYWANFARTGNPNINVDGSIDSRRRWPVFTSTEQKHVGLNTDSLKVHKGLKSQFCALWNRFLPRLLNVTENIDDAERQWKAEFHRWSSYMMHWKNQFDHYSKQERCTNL
Sequence of Cholinesterase (P06276 whole entry): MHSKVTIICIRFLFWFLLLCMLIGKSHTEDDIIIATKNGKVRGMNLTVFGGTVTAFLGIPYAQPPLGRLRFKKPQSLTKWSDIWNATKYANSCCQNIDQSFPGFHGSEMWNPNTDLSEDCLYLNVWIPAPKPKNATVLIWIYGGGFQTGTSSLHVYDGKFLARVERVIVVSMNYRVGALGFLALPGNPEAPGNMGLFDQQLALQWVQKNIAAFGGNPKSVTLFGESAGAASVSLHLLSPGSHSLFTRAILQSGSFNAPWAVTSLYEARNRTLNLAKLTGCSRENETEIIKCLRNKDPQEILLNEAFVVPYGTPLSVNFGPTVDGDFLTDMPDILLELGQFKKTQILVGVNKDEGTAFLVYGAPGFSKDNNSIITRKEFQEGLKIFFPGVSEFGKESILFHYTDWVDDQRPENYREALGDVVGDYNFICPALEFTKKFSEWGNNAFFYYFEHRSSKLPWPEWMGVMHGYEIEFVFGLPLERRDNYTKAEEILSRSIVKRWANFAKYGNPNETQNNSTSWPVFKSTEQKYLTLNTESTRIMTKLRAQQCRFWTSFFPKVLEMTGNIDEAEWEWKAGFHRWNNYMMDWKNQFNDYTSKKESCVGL
Sequence of Acetylcholinesterase (Homo sapiens, UniProt P22303) (P22303 whole entry): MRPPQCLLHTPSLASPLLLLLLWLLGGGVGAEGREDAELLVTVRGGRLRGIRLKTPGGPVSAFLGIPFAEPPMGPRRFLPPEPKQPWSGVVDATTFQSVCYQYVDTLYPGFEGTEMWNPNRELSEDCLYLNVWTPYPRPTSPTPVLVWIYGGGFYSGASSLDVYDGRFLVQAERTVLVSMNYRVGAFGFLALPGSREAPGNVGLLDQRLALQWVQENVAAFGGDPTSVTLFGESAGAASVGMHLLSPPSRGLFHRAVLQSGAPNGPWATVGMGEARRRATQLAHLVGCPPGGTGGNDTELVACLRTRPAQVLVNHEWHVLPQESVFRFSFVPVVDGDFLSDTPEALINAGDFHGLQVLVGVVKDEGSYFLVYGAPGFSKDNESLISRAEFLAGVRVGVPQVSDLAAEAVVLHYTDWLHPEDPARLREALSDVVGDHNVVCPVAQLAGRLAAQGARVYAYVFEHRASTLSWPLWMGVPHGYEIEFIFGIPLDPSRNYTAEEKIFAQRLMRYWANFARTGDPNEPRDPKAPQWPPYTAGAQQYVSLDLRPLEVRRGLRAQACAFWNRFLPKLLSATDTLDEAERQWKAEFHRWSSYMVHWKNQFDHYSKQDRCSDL

With `CCN(C)C(=O)Oc1ccc(/C=C/C(=O)N2CCc3ccccc3C2)cc1OC` the Activity (HT-22) was “Active”, the Flu intensity [1] was 29.2 and the Flu intensity [2] was 32.6. It also gave a viability at 20 µM [3] of 79.8%, a viability at 10 µM (SH-SY5Y) of 83.8% and an Activity [4] of 43.3%. It also gave an Activity (Cholinesterase) of 47.1%, a pIC50 (Acetylcholinesterase [5]) of 4.97 and a Ratio IC50 [6] of 12.3. The pIC50 (Acetylcholinesterase [7]) was 4.95, the Flu intensity [8] was 30.3 and the Flu intensity [9] was 17.9. The Flu intensity [10] was 13.3, the Papp [11] was 21.4 ×10⁻⁶ cm/s and the Activity (L02) was “Non-Toxic”. The mortality at 6.25 ug/ml [12] was 6.7%, the mortality at 12.5 ug/ml [13] was 100% and the mortality at 50 ug/ml [14] was 100%. The Activity [15] was 46.7%, the Activity [16] was 23.3% and the Activity [17] was 33.3%. For the same compound, the Activity [18] was 53.3%, the mortality at 6.25 ug/ml [19] was 13.3% and the mortality at 1 ug/ml [20] was 0%. It also gave a mortality at 10 ug/ml [21] of 0%, a mortality at 50 ug/ml [22] of 100% and a mortality at 100 ug/ml [23] of 100%. The mortality at 200 ug/ml [24] was 100%, the MTD [25] was 1 µg/mL and the Activity (Danio rerio [26]) was “<=6418 mm”. It also gave an Activity (Danio rerio [27]) of 7024 mm, an Activity (Danio rerio [28]) of 1.79 millimeter/sec and an Activity (Danio rerio [29]) of 2.15 millimeter/sec. For the same compound, the Efficacy (Danio rerio [30]) was 57.3%, the Efficacy (Danio rerio [31]) was 86.3% and the Activity (Danio rerio [32]) was 66.7%. The Activity [33] was “Toxic”, the Activity [34] was “Non-Toxic” and the Activity (Mus musculus [35]) was “Active”. The Activity (Mus musculus [36]) was “Active”.
